Patent US11166959B2, “Isofuranone compounds useful as HPK1 inhibitors” (BRISTOL-MYERS SQUIBB COMPANY, priority 2017, dated 2021)

What was measured:
HPK1 = molecular target: T1, HPK1 (Homo sapiens, UniProt Q92918); test: HPK1 Inhibition Assay (kinase reaction, Caliper capillary electrophoresis); type: biochemical; conditions: for IC50: 0.625 nM HPK1, 22 μM ATP, 11 concentrations, read-out: HPK1 IC50; for IRAK4/HPK1 Ratio: ratio of the IRAK4 IC50 value to the HPK1 IC50 value
T1 construct: purchased SignalChem M23-11G
T1 sequence (Q92918 1-346 limits assumed): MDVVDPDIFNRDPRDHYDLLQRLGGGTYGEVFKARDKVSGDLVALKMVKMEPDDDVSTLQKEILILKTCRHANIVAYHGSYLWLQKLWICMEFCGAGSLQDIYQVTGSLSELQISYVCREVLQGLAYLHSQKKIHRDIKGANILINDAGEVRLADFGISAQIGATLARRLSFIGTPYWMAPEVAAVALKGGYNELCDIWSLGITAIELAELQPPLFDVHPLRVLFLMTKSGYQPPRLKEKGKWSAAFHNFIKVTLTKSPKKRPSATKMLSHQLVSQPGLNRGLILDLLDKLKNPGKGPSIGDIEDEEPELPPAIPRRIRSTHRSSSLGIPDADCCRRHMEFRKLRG
Method: (§1) The reactions were incubated out for three hours and quenched with 1 mM EDTA solution. The reaction incubation time and enzyme concentration were optimized to obtain a maximum peptide substrate conversion of 20-30%. The reaction mixtures were analyzed by capillary electrophoresis on a Caliper LabChip EZ Reader to resolve phosphorylated and unphosphorylated peptide species and determine peptide substrate conversion. […] The compounds were dissolved in DMSO and evaluated at 11 concentrations to determine the IC50 values.

IRAK4 = molecular target: T2, IRAK4 (Homo sapiens, UniProt Q9NWZ3); test: IRAK4 Inhibition Assay (kinase reaction, Caliper capillary electrophoresis); type: biochemical; conditions: 500 μM ATP, 11 concentrations
T2 construct: 1 nM IRAK4 (160-460); purchased SignalChem M24016
T2 sequence (Q9NWZ3 160-460): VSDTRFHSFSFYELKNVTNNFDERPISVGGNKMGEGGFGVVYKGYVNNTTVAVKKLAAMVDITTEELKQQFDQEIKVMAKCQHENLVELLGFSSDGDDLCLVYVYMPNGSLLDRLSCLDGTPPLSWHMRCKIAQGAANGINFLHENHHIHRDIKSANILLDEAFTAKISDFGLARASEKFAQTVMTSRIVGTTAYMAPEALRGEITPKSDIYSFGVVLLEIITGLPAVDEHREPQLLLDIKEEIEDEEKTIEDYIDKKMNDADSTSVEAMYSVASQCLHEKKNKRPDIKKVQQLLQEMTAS
Method: as §1, with “determine” for “determine the”

In the case of `Cc1ccccc1CNC(=O)c1cnc(Nc2ccc3c(c2)C(C)(C)OC3=O)nc1N[C@H](CO)c1ccccc1` [Example 16, 2-[(3,3-dimethyl-1-oxo-1,3-dihydro-2-benzofuran-5-yl)amino]-4-{[(1S)-2-hydroxy-1-phenylethyl]amino}-N-[(2-methylphenyl)methyl]pyrimidine-5-carboxamide], the IC50 (HPK1) is reported as 50 to 250 nM, the “IRAK4/HPK1 Ratio” value (HPK1) is reported as “B (B=10 to 50)” and the IC50 (IRAK4) is reported as 250 to 1000 nM.

With `CCn1nc(-c2cnc(Nc3ccc4c(c3)C(C)(C)OC4=O)nc2N[C@H](CO)c2ccccc2)oc1=O` [Example 53, 5-{2-[(3,3-dimethyl-1-oxo-1,3-dihydro-2-benzofuran-5-yl)amino]-4-{[(1S)-2-hydroxy-1-phenylethyl]amino}pyrimidin-5-yl}-3-ethyl-2,3-dihydro-1,3,4-oxadiazol-2-one] the IC50 (HPK1) was under 50 nM, the “IRAK4/HPK1 Ratio” value (HPK1) was “C (C=>50)” and the IC50 (IRAK4) was 250 to 1000 nM.

`CC1(C)OC(=O)c2ccc(Nc3cc(N[C@H](CO)c4ccccc4)c(-c4nc(C5CC5)no4)cn3)cc21` [Example 78, 5-{[5-(3-cyclopropyl-1,2,4-oxadiazol-5-yl)-4-{[(1S)-2-hydroxy-1-phenylethyl]amino}pyridin-2-yl]amino}-3,3-dimethyl-1,3-dihydro-2-benzofuran-1-one] was tested, and the IC50 (HPK1) was 50 to 250 nM, the “IRAK4/HPK1 Ratio” value (HPK1) was “B (B=10 to 50)” and the IC50 (IRAK4) was 250 to 1000 nM.

In the case of `Cc1noc(-c2cnc(Nc3ccc4c(c3)C(C)(C)OC4=O)nc2NCc2ccccc2C(C)(C)O)n1` [Example 72, 5-{[4-({[2-(2-hydroxypropan-2-yl)phenyl]methyl}amino)-5-(3-methyl-1,2,4-oxadiazol-5-yl)pyrimidin-2-yl]amino}-3,3-dimethyl-1,3-dihydro-2-benzofuran-1-one], the IC50 (HPK1) is reported as 50 to 250 nM, the “IRAK4/HPK1 Ratio” value (HPK1) is reported as “B (B=10 to 50)” and the IC50 (IRAK4) is reported as 250 to 1000 nM.

In the case of `C#CCNC(=O)c1cnc(Nc2ccc3c(c2)C(C)(C)OC3=O)nc1N[C@H](CO)c1ccccc1` [Example 21, 2-[(3,3-dimethyl-1-oxo-1,3-dihydro-2-benzofuran-5-yl)amino]-4-{[(1S)-2-hydroxy-1-phenylethyl]amino}-N-(prop-2-yn-1-yl)pyrimidine-5-carboxamide], the IC50 (HPK1) is reported as under 50 nM, the “IRAK4/HPK1 Ratio” value (HPK1) is reported as “B (B=10 to 50)” and the IC50 (IRAK4) is reported as 250 to 1000 nM.

In the case of `CC1(C)OC(=O)c2ccc(Nc3ncc(-c4nc(-c5cccc(F)c5)no4)c(N[C@H](CO)c4ccccc4)n3)cc21` [Example 45, 5-({5-[3-(3-fluorophenyl)-1,2,4-oxadiazol-5-yl]-4-{[(1S)-2-hydroxy-1-phenylethyl]amino}pyrimidin-2-yl}amino)-3,3-dimethyl-1,3-dihydro-2-benzofuran-1-one], the IC50 (HPK1) is reported as 50 to 250 nM, the “IRAK4/HPK1 Ratio” value (HPK1) is reported as “B (B=10 to 50)” and the IC50 (IRAK4) is reported as 250 to 1000 nM.

For `CC1(C)OC(=O)c2ccc(Nc3ncc(-c4nnc(-c5ccccn5)o4)c(N[C@H](CO)c4ccccc4)n3)cc21` [Example 66, 5-[(4-{[(1S)-2-hydroxy-1-phenylethyl]amino}-5-[5-(pyridin-2-yl)-1,3,4-oxadiazol-2-yl]pyrimidin-2-yl)amino]-3,3-dimethyl-1,3-dihydro-2-benzofuran-1-one], the IC50 (HPK1) was 50 to 250 nM, the “IRAK4/HPK1 Ratio” value (HPK1) was “B (B=10 to 50)” and the IC50 (IRAK4) was 250 to 1000 nM.

With `CC1(C)OC(=O)c2ccc(Nc3ncc(-c4nc(C5(CO)CC5)no4)c(N[C@H](CO)c4ccccc4)n3)cc21` [Example 38, 5-[(4-{[(1S)-2-hydroxy-1-phenylethyl]amino}-5-{3-[1-(hydroxymethyl)cyclopropyl]-1,2,4-oxadiazol-5-yl}pyrimidin-2-yl)amino]-3,3-dimethyl-1,3-dihydro-2-benzofuran-1-one] the IC50 (HPK1) was under 50 nM, the “IRAK4/HPK1 Ratio” value (HPK1) was “C (C=>50)” and the IC50 (IRAK4) was 50 to 250 nM.

With `CC1(C)OC(=O)c2ccc(Nc3ncc(C(=O)NCCCn4ccnc4)c(N[C@H](CO)c4ccccc4)n3)cc21` [Example 19, 2-[(3,3-dimethyl-1-oxo-1,3-dihydro-2-benzofuran-5-yl)amino]-4-{[(1S)-2-hydroxy-1-phenylethyl]amino}-N-[3-(1H-imidazol-1-yl)propyl]pyrimidine-5-carboxamide] the IC50 (HPK1) was under 50 nM, the “IRAK4/HPK1 Ratio” value (HPK1) was “B (B=10 to 50)” and the IC50 (IRAK4) was 250 to 1000 nM.

`CC1(C)OC(=O)c2ccc(Nc3ncc(C(=O)NN)c(N[C@H](CO)c4ccccc4)n3)cc21` [Example 51, 2-[(3,3-dimethyl-1-oxo-1,3-dihydro-2-benzofuran-5-yl)amino]-4-{[(1S)-2-hydroxy-1-phenylethyl]amino}pyrimidine-5-carbohydrazide] was tested, and the IC50 (HPK1) was under 50 nM, the “IRAK4/HPK1 Ratio” value (HPK1) was “C (C=>50)” and the IC50 (IRAK4) was 250 to 1000 nM.

`CC1(C)OC(=O)c2ccc(Nc3ncc(-c4nnc(C(C)(O)C(F)(F)F)o4)c(N[C@H](CO)c4ccccc4)n3)cc21` (stereo partly drawn) [Example 65, 5-[(4-{[(1S)-2-hydroxy-1-phenylethyl]amino}-5-[5-(1,1,1-trifluoro-2-hydroxypropan-2-yl)-1,3,4-oxadiazol-2-yl]pyrimidin-2-yl)amino]-3,3-dimethyl-1,3-dihydro-2-benzofuran-1-one] was tested, and the IC50 (HPK1) was under 50 nM, the “IRAK4/HPK1 Ratio” value (HPK1) was “B (B=10 to 50)” and the IC50 (IRAK4) was 250 to 1000 nM.

With `CCCCc1noc(-c2cnc(Nc3ccc4c(c3)C(C)(C)OC4=O)nc2N[C@H](CO)c2ccccc2)n1` [Example 36, 5-{[5-(3-butyl-1,2,4-oxadiazol-5-yl)-4-{[(1S)-2-hydroxy-1-phenylethyl]amino}pyrimidin-2-yl]amino}-3,3-dimethyl-1,3-dihydro-2-benzofuran-1-one] the IC50 (HPK1) was under 50 nM, the “IRAK4/HPK1 Ratio” value (HPK1) was “C (C=>50)” and the IC50 (IRAK4) was 250 to 1000 nM.

`CC/N=C(\NCCCN(C)C)NNC(=O)c1cnc(Nc2ccc3c(c2)C(C)(C)OC3=O)nc1N[C@H](CO)c1ccccc1` [Example 59, 1-({2-[(3,3-dimethyl-1-oxo-1,3-dihydro-2-benzofuran-5-yl)amino]-4-{[(1S)-2-hydroxy-1-phenylethyl]amino}pyrimidin-5-yl}formohydrazido)-N-[3-(dimethylamino)propyl]-N′-ethylmethanimidamide] was tested, and the IC50 (HPK1) was under 50 nM, the “IRAK4/HPK1 Ratio” value (HPK1) was “B (B=10 to 50)” and the IC50 (IRAK4) was 250 to 1000 nM.

With `CC1(C)OC(=O)c2ccc(Nc3ncc(C(=O)NC4CCN(Cc5ccccc5)C4)c(N[C@H](CO)c4ccccc4)n3)cc21` (stereo partly drawn) [Example 22, N-(1-benzylpyrrolidin-3-yl)-2-[(3,3-dimethyl-1-oxo-1,3-dihydro-2-benzofuran-5-yl)amino]-4-{[(1S)-2-hydroxy-1-phenylethyl]amino}pyrimidine-5-carboxamide] the IC50 (HPK1) was under 50 nM, the “IRAK4/HPK1 Ratio” value (HPK1) was “C (C=>50)” and the IC50 (IRAK4) was 250 to 1000 nM.

`CC1(C)OC(=O)c2ccc(Nc3ncc(-c4nc(C5CC(F)(F)C5)no4)c(N[C@H](CO)c4ccccc4)n3)cc21` [Example 40, 5-({5-[3-(3,3-difluorocyclobutyl)-1,2,4-oxadiazol-5-yl]-4-{[(1S)-2-hydroxy-1-phenylethyl]amino}pyrimidin-2-yl}amino)-3,3-dimethyl-1,3-dihydro-2-benzofuran-1-one] was tested, and the IC50 (HPK1) was under 50 nM, the “IRAK4/HPK1 Ratio” value (HPK1) was “C (C=>50)” and the IC50 (IRAK4) was 250 to 1000 nM.

For `CC1(C)OC(=O)c2ccc(Nc3ncc(C(=O)NNC(=O)C4CC4)c(N[C@H](CO)c4ccccc4)n3)cc21` [Example 62, (S)—N′-(cyclopropanecarbonyl)-2-((3,3-dimethyl-1-oxo-1,3-dihydroisobenzofuran-5-yl)amino)-4-((2-hydroxy-1-phenylethyl)amino)pyrimidine-5-carbohydrazide], the IC50 (HPK1) was under 50 nM, the “IRAK4/HPK1 Ratio” value (HPK1) was “C (C=>50)” and the IC50 (IRAK4) was 250 to 1000 nM.

For `CC1(C)OC(=O)c2ccc(Nc3ncc(C(=O)NNC(=O)c4cccnc4)c(N[C@H](CO)c4ccccc4)n3)cc21` [Example 56, N′-{2-[(3,3-dimethyl-1-oxo-1,3-dihydro-2-benzofuran-5-yl)amino]-4-{[(1S)-2-hydroxy-1-phenylethyl]amino}pyrimidine-5-carbonyl}pyridine-3-carbohydrazide], the IC50 (HPK1) was under 50 nM, the “IRAK4/HPK1 Ratio” value (HPK1) was “B (B=10 to 50)” and the IC50 (IRAK4) was 250 to 1000 nM.

For `COCCNC(=O)c1cnc(Nc2ccc3c(c2)C(C)(C)OC3=O)nc1N[C@H](CO)c1ccccc1` [Example 8, 2-[(3,3-dimethyl-1-oxo-1,3-dihydro-2-benzofuran-5-yl)amino]-4-{[(1S)-2-hydroxy-1-phenylethyl]amino}-N-(2-methoxyethyl)pyrimidine-5-carboxamide], the IC50 (HPK1) was under 50 nM, the “IRAK4/HPK1 Ratio” value (HPK1) was “B (B=10 to 50)” and the IC50 (IRAK4) was 50 to 250 nM.
